Results reported in patent publication US11529344B2, “EZH2 inhibitor combination therapies” (Pfizer Inc., priority 2017, dated 2022).
Entries after “also recorded” stand apart in the source; their conditions may differ.

Key:
DMS114 SCLC xenograft = test system: DMS114 SCLC xenograft
Source text: • (i) Compound Formulation: Compound 1 was formulated as a wet-milled nanosuspension (24 hr milling in 2.5% w/v polyvinyl pyrrolidone (PVP), 0.5% w/v Macrogol 15 Hydroxystearate (Kolliphor HS15) aqueous, with <1 μm particle-size distribution (PSD; ˜650 nm median diameter (d50)) for oral gavage administration. • (ii) Cell Implant, Compound Dosing and Tissue Collection: Immune deficient female mice with a severe combined immunodeficiency (SCID) mutation in a non-obese diabetic background (NOD SCID; 6 to 8 week old; NOD.CB17-Prkdcscid/NCrCrl from Charles River Laboratories) received a subcutaneous (SC) implant of 7.5×10^6 DMS114 cells (in 1:1 matrigel (Trevigen, Cultrex BME Path Clear®, Lot #: 30625F14), total volume 200 μl) into the right flank. Tumor volume and body weight were measured twice a week. On Day 20 post implant, 64 mice were randomized, based on tumor size at a geometric mean (geomean) of about 160 mm^3, into 6 groups corresponding to dose (Table 1). Compounds were administered at 10 ml/kg by oral gavage (Compound 1; BID ( 7/17 hours apart)) or intraperitoneal injection (cisplatin), respectively. The cisplatin dosing schedule was once a week for 3 weeks (Q7Dx3) and started 7 days after the randomization and treatment initiation with Compound 1.
On Day 55, study groups 1, 2, 3 and 4 were terminated (Table 1). Tumor (snap frozen) samples were collected at 4 hours post last dose for pharmacodynamic (PD) analysis. […] Tumor samples from groups 5 and 6 were collected 3 hours post last dose depending on available tumor sizes. All procedures performed on these animals were in accordance with regulations and established guidelines and were reviewed and approved by Pfizer's Institutional Animal Care and Use Committee. • (iii) Data Interpretation: For each experiment, calculations were performed and graphs created in Microsoft Excel and GraphPad Prism version 7.02 respectively. The tumor volume was calculated as 0.5×length×width^2. Tumor growth inhibition (TGI) was determined by the formula: % TGI=[1−(Vtx−Vt0/Vcx−Vc0)]×100, where Vc, Vt are the geometric means of control and treated groups. X=day X on study and 0=initial day of dosing. ELISA Assay: • (i) Histone Extraction: Histone extraction was performed using the EpiQuick Histone Extraction Kit (Epigentek OP0006). Frozen tumor samples were cut and homogenized using cold mortar and pestle on dry-ice. The homogenized mixture was transferred to a 1.5 mL tube in 1× Pre-Lysis Buffer (200 mg/mL) containing phenylmethylsulfonyl fluoride (PMSF). Samples were gently mixed, incubated on ice for 15 minutes, and spun down at 3,000 rpm for 5 minutes at 4° C. The tissue pellet was resuspended in 3 volumes (approximately 200 μL per 100 mg of tissue) of lysis buffer from the Histone Extraction Kit, incubated on ice for 30 minutes, and spun down at 12,000 rpm for 5 minutes at 4° C. Balance-DTT buffer was prepared by adding DTT Solution to balance buffer at a 1:500 ratio. The supernatant (containing acid soluble proteins) was transferred to a new 1.5 mL tube and 0.3 volumes of Balance-dithiothreitol (DTT) buffer from the Histone Extraction Kit were immediately added to each sample. The tumor lysate was briefly sonicated for 4 cycles (30 seconds on and 30 seconds off) at high intensity using the Bioruptor Plus (Diagenode #601020001). Extracts were aliquoted and stored at −20° C. (short term) or −80° C. (long term). Protein concentration was quantified using the Coomassie Plus (Bradford) Assay Kit (Thermo #23236). • (ii) H3K27Me3 and Me2 ELISA Assay: Histone extracts were diluted to a final concentration of 400 ng (or 800 ng) in 100 μL of coating buffer (phosphate buffered saline (PBS) containing 0.05% bovine serum albumin (BSA)).

DMS114 SCLC cells = assay: Cell growth inhibition assay for DMS114 SCLC cells; type: cell-based; details: Homo sapiens, DMS-114, 17-21 days of treatment, mean of 6 biological replicates, read-out: Proliferation IC50 ± SD (nM) (n)
Procedure: COR-L88 (92031917) cells were purchased from ECACC. […] No. 1565565).
DMS114 SCLC cells were plated in complete cell culture medium described above (1 mL/well) in a 12-well clear, flat bottom polystyrene tissue culture plate (Falcon, Cat. 353225) at a density of 10,000 cells/well. Plates were incubated overnight for 16 hours at 37° C. and 5% CO2. Cells were then treated for 3 days with a 10-point, 3-fold serial dilution of Compound 1 starting at a high concentration of 3 μM. After 3 days, cells from each individual dose treatment were dissociated with Trypsin-EDTA (0.25%) (Gibco/Life Technologies Cat. 25200-056), resuspended in fresh medium, and counted using Vi-Cell cell counter and cell viability analyzer (Beckman Coulter, cat. 383556). […] Plates were then read in an Infinite M200 Pro microplate reader (Tecan Cat. 396235) using a fluorescence excitation wavelength of 540 nm to 570 nm (peak excitation is 570 nm) and emission at 580 nm to 610 nm (peak emission is 585 nm). IC50 values were calculated using nonlinear regression dose response curve fit in GraphPad Prism version 7.02.
The activity of Compound 1 in inhibiting cell proliferation of EZH2-WT DMS114 SCLC cells was also assessed using the cell proliferation assay for DMS114 SCLC cells described above. […]

## COc1cc(C)[nH]c(=O)c1CN1CCc2c(Cl)cc([C@H](OC)C3COC3)c(Cl)c2C1=O [Compound 1, 5,8-dichloro-2-[(4-methoxy-6-methyl-2-oxo-1,2-dihydro-pyridin-3-yl)methyl]-7-[(R)-methoxy(oxetan-3-yl)methyl]-3,4-dihydroisoquinolin-1(2H)-one]
DMS114 SCLC xenograft; Compound 1 100 mg/kg BID PO, cisplatin 4 mg/kg IP Q7Dx3, alone or combined
  TGI by Day 55: 50%
DMS114 SCLC xenograft; Compound 1 100 mg/kg BID and 300 mg/kg BID, Day 55
  anti-tumor benefit vs vehicle control group: significant anti-tumor benefit
DMS114 SCLC xenograft; Compound 1 PO BID, cisplatin 4 mg/kg IP Q7Dx3, combination with Compound 1 100 mg/kg BID
  tolerability / body weight loss: well tolerated with limited bodyweight loss; also recorded: minimal toxicity
DMS114 SCLC xenograft; Compound 1 monotherapy arms, 30, 100 and 300 mg/kg BID
  complete tumor regressions: No complete tumor regressions
DMS114 SCLC xenograft; Day 55, Compound 1 100 mg/kg BID, cisplatin 4 mg/kg Q7Dx3
  tumors regressed or progressed compared to the starting tumor burden: all tumors had progressed
DMS114 SCLC xenograft; survival cut-off at 500 mm^3 tumor burden
  survival benefit, Log-rank test (Mantel-Cox): did not reach the P<0.05 significance level
DMS114 SCLC xenograft; survival cut-off at 500 mm^3 tumor burden, Compound 1 100 mg/kg BID, cisplatin 4 mg/kg Q7Dx3
  median survival: 39 days
DMS114 SCLC cells
  IC50: 18.8 nM
